“Also recorded” adds a separate entry of the source. Read-outs that look alike come from different tables or passages of the source.
Tests used:
TEM-1 Bla [1] = biological target: T1, TEM-1 Bla (Escherichia coli, UniProt P62593); assay type: biochemical, E. coli; conditions: for hydrolysis by TEM-1 bla: in words
Bla = Bla (Escherichia coli, UniProt P62593); assay type: biochemical; conditions: CC1 versus analog without inserted double bond
Bla in live E. coli = experiment: Detection of Bla activity in living E. coli; assay type: cell-based; conditions: E. coli with ampicillin resistant plasmid, LB media
Mtb BlaC [2] = biological target: T2, Mtb BlaC (Mycobacterium tuberculosis, UniProt P9WKD3); experiment: Hydrolysis kinetics of coumarin-based lactam probes by Mtb BlaC (fluorescence of released 7-hydroxycoumarin); assay type: biochemical
Mtb BlaC [3] = biological target: T2, Mtb BlaC; assay type: biochemical; conditions: for enzyme preference Mtb BlaC versus TEM-1 Bla: in words
TEM-1 Bla [4] = biological target: T1, TEM-1 Bla; conditions: cefoperazone versus CNIR5
Bacillus Calmette-Guerin = assay type: cell-based, Mycobacterium bovis; conditions: 2 ng/μl rifampicin or 0.2 ng/μl INH, sputum, CDG-OMe, 24 hour
[5] = test system: CCN1CCN(C(=O)N[C@@H](C(=O)N[C@@H]2C(=O)N3C(C(=O)O)=C(CSc4nnnn4C)CS[C@H]23)c2ccc(O)cc2)C(=O)C1=O; experiment: purified protein, by the assay type

T2 sequence (P9WKD3 35-307): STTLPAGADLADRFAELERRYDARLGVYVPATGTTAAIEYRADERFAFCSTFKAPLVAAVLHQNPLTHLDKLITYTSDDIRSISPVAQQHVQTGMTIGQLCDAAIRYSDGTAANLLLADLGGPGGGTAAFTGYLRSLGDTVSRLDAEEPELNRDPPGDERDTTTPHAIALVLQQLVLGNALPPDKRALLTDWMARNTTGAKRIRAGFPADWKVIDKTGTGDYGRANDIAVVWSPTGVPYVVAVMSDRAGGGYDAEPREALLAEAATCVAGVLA
T1 sequence (P62593 24-286 limits assumed): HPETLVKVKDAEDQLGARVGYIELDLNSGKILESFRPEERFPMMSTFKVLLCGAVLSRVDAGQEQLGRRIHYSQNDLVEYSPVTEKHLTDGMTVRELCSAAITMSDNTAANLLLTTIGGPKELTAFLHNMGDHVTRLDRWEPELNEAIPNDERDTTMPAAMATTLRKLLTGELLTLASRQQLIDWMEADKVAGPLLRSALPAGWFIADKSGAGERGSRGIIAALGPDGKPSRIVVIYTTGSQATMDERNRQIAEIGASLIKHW
Bla, sequence (P62593 24-286 limits assumed): as above

CO[C@@]1(NC(C)=O)C(=O)N2C(C(=O)O)=C(COc3ccc4ccc(=O)oc4c3)CS[C@@H]21 [4-64]
hydrolysis by TEM-1 bla (TEM-1 Bla [1]): so slow that cannot be determined

O=C(Cc1ccccc1)N[C@@H]1C(=O)N2C(C(=O)O)=C(/C=C\COc3ccc4ccc(=O)oc4c3)CS[C@H]12 [CC1]
increase in the catalytic efficiency by the inserted double bond (Bla): ~5 fold

CCCC(=O)Oc1cc2oc(=O)c(C(=O)NCC(=O)N[C@@H]3C(=O)N4C(C(=O)OCOC(C)=O)=C(CSc5ccc6c(c5)C(=O)OC65c6ccc(OC(C)=O)cc6Oc6cc(OC(C)=O)ccc65)CS[C@H]34)cc2cc1Cl [CCF2/AM]
detection of Bla in live E. coli (Bla in live E. coli): not detected

O=C(Cc1ccccc1)N[C@@H]1C(=O)N2C(C(=O)O)=C(COc3ccc4ccc(=O)oc4c3)CS[C@H]12 [CDC-1]
enzyme preference Mtb BlaC versus TEM-1 Bla (Mtb BlaC [2]; in words): TEM-1 Bla-preferred

O=C(Cc1ccccc1)N[C@@H]1C(=O)N2C(C(=O)O)=C(COc3ccc4ccc(=O)oc4c3)C[S+]([O-])[C@H]12 (some centres unmarked) [CDC-2]
kcat (TEM-1 Bla [1]; TEM-1 bla): 7 s⁻¹ | kcat (Mtb BlaC [2]; blaC): 0.51 s⁻¹

CCO[C@@]1(NC(=O)Cc2ccccc2)C(=O)N2C(C(=O)O)=C(COc3ccc4ccc(=O)oc4c3)CS[C@@H]21 [CDC-OEt]
hydrolysis by TEM-1 bla (TEM-1 Bla [1]): so slow that cannot be determined

CO[C@@]1(NC(=O)Cc2ccccc2)C(=O)N2C(C(=O)O)=C(COc3ccc4ccc(=O)oc4c3)CS[C@@H]21 [CDC-OMe]
kcat/Km for blaC larger than for TEM-1 bla (Mtb BlaC [2]): 1,400 fold

CCN1CCN(C(=O)N[C@@H](C(=O)N[C@@H]2C(=O)N3C(C(=O)O)=C(CSc4nnnn4C)CS[C@H]23)c2ccc(O)cc2)C(=O)C1=O [cefoperazone]
faster kinetics with the Mtb enzyme than the TEM-1 enzyme (Mtb BlaC [3]): 10-100 fold | enzyme preference Mtb BlaC versus TEM-1 Bla (Mtb BlaC [3]): preferred substrate for Mtb BlaC as compared to TEM-1 Bla; also recorded: better kinetics with the Mtb BlaC than TEM-1 | kcat/KM for TEM-1 Bla smaller than that of CNIR5 (TEM-1 Bla [4]): 100 fold

CO/N=C(\C(=O)N[C@@H]1C(=O)N2C(C(=O)O)=C(COC(C)=O)CS[C@H]12)c1csc(N)n1 [cefotaxime]
enzyme preference Mtb BlaC versus TEM-1 Bla (Mtb BlaC [3]): better kinetics with the Mtb BlaC than TEM-1

CO[C@@]1(NC(=O)Cc2cccs2)C(=O)N2C(C(=O)O)=C(COC(N)=O)CS[C@@H]21 [cefoxitin]
enzyme preference Mtb BlaC versus TEM-1 Bla (Mtb BlaC [3]): better kinetics with the Mtb BlaC than TEM-1

NNC(=O)c1ccncc1 [isoniazide]
fluorescence of BCG with drug over time (Bacillus Calmette-Guerin): effectively no increase in fluorescence

Mtb BlaC (Mycobacterium tuberculosis H37Rv)
Km [5]: 76 µM | kcat [5]: 2.01 s⁻¹ | kcat/Km [5]: 26000 M⁻¹ s⁻¹

TEM-1 Bla (Escherichia coli)
Km ([5]; other: TEM-1 Bla): 262 µM | kcat ([5]; other: TEM-1 Bla): 0.26 s⁻¹ | kcat/Km ([5]; other: TEM-1 Bla): 1000 M⁻¹ s⁻¹

From US9441261B2, “Use of bacterial beta-lactamase for in vitro diagnostics and in vivo imaging, diagnostics and therapeutics” (priority 2008, dated 2016)
